This is an account of results in patent US9109004B2, “Progesterone receptor antagonists” (Bayer Intellectual Property GmbH, priority 2010, dated 2015).

Molecules are shown by their SMILES.

Data set [1] addresses T1, human progesterone receptor B (Homo sapiens, UniProt P06401).
T1 construct: expressed in transfected cells; host or cells: SK-N-MC human neuroblastoma cells, stably transfected
T1 sequence (P06401 1-933): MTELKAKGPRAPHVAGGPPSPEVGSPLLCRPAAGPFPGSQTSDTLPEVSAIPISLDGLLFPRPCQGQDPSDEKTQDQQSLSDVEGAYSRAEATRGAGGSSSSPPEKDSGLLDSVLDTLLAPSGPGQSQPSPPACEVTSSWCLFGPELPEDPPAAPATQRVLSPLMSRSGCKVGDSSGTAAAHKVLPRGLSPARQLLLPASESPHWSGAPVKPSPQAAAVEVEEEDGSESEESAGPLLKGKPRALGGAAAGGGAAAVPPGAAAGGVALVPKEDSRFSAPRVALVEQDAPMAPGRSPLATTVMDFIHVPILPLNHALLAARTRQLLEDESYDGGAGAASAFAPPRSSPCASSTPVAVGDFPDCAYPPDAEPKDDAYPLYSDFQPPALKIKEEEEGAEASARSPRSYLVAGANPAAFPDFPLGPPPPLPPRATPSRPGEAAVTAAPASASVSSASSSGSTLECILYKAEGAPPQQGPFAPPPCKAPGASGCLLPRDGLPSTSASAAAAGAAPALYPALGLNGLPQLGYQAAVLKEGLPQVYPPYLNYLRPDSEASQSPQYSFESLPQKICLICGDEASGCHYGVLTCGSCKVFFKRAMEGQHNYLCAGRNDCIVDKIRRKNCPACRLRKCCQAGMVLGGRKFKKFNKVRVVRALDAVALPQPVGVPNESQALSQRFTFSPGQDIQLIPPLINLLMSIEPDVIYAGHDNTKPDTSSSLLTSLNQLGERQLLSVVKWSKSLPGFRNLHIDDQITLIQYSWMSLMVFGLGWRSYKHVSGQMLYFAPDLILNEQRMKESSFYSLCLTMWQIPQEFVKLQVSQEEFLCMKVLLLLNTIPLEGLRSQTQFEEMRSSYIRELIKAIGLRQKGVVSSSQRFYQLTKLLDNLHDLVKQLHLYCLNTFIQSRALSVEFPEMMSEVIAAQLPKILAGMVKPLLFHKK
Briefly: Progesterone-receptor-antagonistic action in stably transfected SK-N-MC cells, MTV-LUC reporter (PR-B). Format: cell-based. Conditions: antagonistic potency vs 0.1 nmol/l promegestone, 24 hours, luciferase. As to the method:
Progesterone-Receptor-Antagonistic Action in Stable Transfectants of Human Neuroblastoma Cells (SK-N-MC Cells) with the Human Progesterone A or Progesterone B Receptor and an MTV-LUC Reporter Construct
SK-N-MC cells (human neuroblastoma cells) that have been stably transfected with plasmids that express the human progesterone receptor B (pRChPR-B-neo) or the human progesterone receptor A (pRChPR-A-neo) and a reporter construct (pMMTV-LUC), were incubated for 24 hours either in the absence (negative control) or in the presence of increasing amounts of the particular test compound (0.01 nmol/l, 0.1 nmol/l, 1 nmol/l, 10 nmol/l, 100 nmol/l and 1 μmol/l), to determine the agonistic efficacy. As positive control of reporter gene induction, the cells were treated with the synthetic gestagen promegestone (0.01 nmol/l, 0.1 nmol/l, 1 nmol/l, 10 nmol/l, 100 nmol/l and 1 μmol/l). For determination of the antagonistic activity, the cells were treated with 0.1 nmol/l promegestone and additionally with increasing amounts of the particular test compound (0.01 nmol/l, 0.1 nmol/l, 1 nmol/l, 10 nmol/l, 100 nmol/l and 1 μmol/l). The activity of the reporter gene LUC (LUC=luciferase) was determined in the cell lysates and was measured as RLU (relative light units). All measured values are given as % efficacy and as EC50 or IC50 concentrations.

For a further data set, the system named is pregnant rats. Description: Test as abortifacient in female rats (termination of early pregnancy). It is filed as in vivo, rat. The note with it: d5-d7 p.c., autopsy d9 p.c. As to the method: Test as Abortifacient in Female Rats
The antagonistic action of the compounds according to the invention was tested on pregnant rats (6 rats per group) on day 5 to 7 post coitum in conventional conditions of husbandry and feeding.
After successful mating, the pregnant animals (presence of sperm in the vaginal smear on day 1 of pregnancy=d1 p.c.) were randomized and were divided into the treatment group and the control group. The animals then received, subcutaneously or orally, in each case 0.15; 0.5; 1.5 or 5 mg/kg of the test compound or 1.0 ml/kg of vehicle (benzyl benzoate/castor oil: 1+4 [v/v]) daily from day 5 to day 7 (d5-d7 p.c.).
Autopsy was carried out on day 9 (d9 p.c.). For characterization of progesterone-receptor-antagonistic action, the uterus was investigated for the presence of nidation sites. Complete absence, but also the presence of pathological, haemorrhagic or otherwise abnormal nidation sites on day 9 (d9 p.c.) was assessed as abortion.

A short description of data set [2]: Metabolic stability in human liver microsomes (HLM). Format: in vitro ADME. The note with it: from HLM half-life, well-stirred model, phase I reactions; 1 μM test compound. As to the method: Metabolic stability of 4-[(11β,17β)-17-hydroxy-3-oxo-17-(pentafluoro-ethyl)estra-4,9-dien-11-yl]benzamide and 4′-[(11β,17β)-17-hydroxy-3-oxo-17-(pentafluoro-ethyl)estra-4,9-dien-11-yl]biphenyl-4-carboxamide in human liver microsomes (HLM) Isolated human liver microsomes (HLM) were used for assessing the metabolic stability of compounds of general formula I. The incubations were carried out with 2.4 ml HLM solution (0.5 mg/ml protein content), 30 μl of the test compound (final concentration 1 μM) and 0.6 ml of the cofactor mixture (=NADPH-generating system of 3 IU glucose-6-phosphate dehydrogenase, 14.6 mg glucose-6-phosphate, 1.2 mg NADP) at 37° C. in 100 mM phosphate buffer at pH 7.4. Samples are taken at 6 time points (2-60 min), precipitated with an equal volume of methanol, and the recovery of the test substances used in the supernatant is determined by LC-MS/MS analysis. The intrinsic clearance of the substance in the liver microsome assay can be calculated from the value found for the half-life of substance breakdown. Using this, on the basis of various physiological characteristics according to the well-stirred model it is possible to predict a (metabolic) in-vivo clearance with respect to phase I reactions.

In turn, `C[C@]12C[C@H](c3ccc(C(N)=O)cc3)C3=C4CCC(=O)C=C4CC[C@H]3[C@@H]1CC[C@@]2(O)C(F)(F)C(F)(F)F` [Example 1, 4-[(11β,17β)-17-Hydroxy-3-oxo-17-(pentafluoroethyl)estra-4,9-dien-11-yl]benzamide] came in with a concentration for half-maximal inhibition (IC50) in data set [1] of 0.9 nM. In addition, the Abortion rate stood at 0% in the data set with pregnant rats (daily dose 0.5 mg/kg p.o.), 50% with pregnant rats (daily dose 1.5 mg/kg p.o.) and 100% in the data set with pregnant rats (daily dose 5.0 mg/kg p.o.). The “(metabolic) in-vivo clearance in humans predicted” value in data set [2] is on record as 0.33 L/h/kg.
